According to patent publication US9194862B2, “Compositions and methods for determining cancer stem cell self-renewal potential” (THE REGENTS OF THE UNIVERSITY OF CALIFORNIA, priority 2009, dated 2015):

What was measured:
[1] = test system: Mcl-1 long and short isoform; test: qPCR of Mcl-1 long and short isoforms in tumor cells harvested from treated mice; assay type: in vivo; settings: tumor cells from treated mice (n=3) vs vehicle (n=2)
Excerpt: For gene expression analysis, cDNA was made from RNA isolated from sorted progenitor populations (CD34^+CD38^+Lin^−). Isoform specific RT-PCR was used to determine expression levels of Bcl-2, Bcl-X, and Mcl-1 isoforms. Expression was confirmed using qPCR.

[2] = test system: progenitors (CD34+CD38+Lin−) from CML BC-derived tumors; test: CML BC progenitor engraftment in transplanted mice, FACS of human CD45+ cells in liver; assay type: in vivo; settings: oral gavage daily for 3 weeks, 120 μg/kg, vs vehicle, FACS of livers, n=4 vs n=5, p=0.03
Protocol: Briefly, immunocompromised neonatal mice were transplanted intrahepatically with luciferase GFP transduced myeloid sarcomas from mice transplanted with BC CSC, the methodology described in Geron et al, Cancer Cell 2008; 13(4):321-30. […] Engraftment levels were determined by FACS analysis of human CD45^+ expression in mouse livers on […] post-transplant.
FIG. 3C. Left: qPCR analysis of Mcl-1 long (blue) and short (red) transcripts from progenitors (CD34^+CD38^+Lin^−) of several normal and CML samples. […] FIG. 4 below. […] FIG. 4A. […] Representative FACS data of CD45^+ cells in mouse livers transplanted with progenitors (CD34^+CD38^+Lin^−) from CML BC-derived tumors. […] Mouse livers were harvested at 13 weeks post-transplant, stained, and analyzed for human CD45^+ cells using FACS. • FIG. 4C.

With `Cc1cc2c(C(C)C)c(O)c(O)cc2c(O)c1-c1c(C)cc2c(C(C)C)c(O)c(O)cc2c1O` [apogossypol] the “Mcl-1 short isoform expression” value [1] was “higher Mcl-1 short isoform expression”, the “number/frequency of human CD45+ cells engrafted in the mouse liver (tumor cell engraftment)” value [2] was “statistically significant (p=0.03) decrease in tumor cell engraftment” and the “number/frequency of human CD45+ cells engrafted in the mouse liver (tumor cell engraftment)” value ([2]; listed as Apogossypol) was “statistically significant decrease”.
